Patent US7605156B2, “Methods for the use of inhibitors of cytosolic phospholipase A2” (Wyeth, priority 2001, dated 2009)

Legend:
cPLA2 = molecular target: T1, cPLA2 (Homo sapiens, UniProt P47712); assay: Coumarine assay (hydrolysis of 7-hydroxycoumarinyl 6-heptenoate); format: biochemical; settings: 60 μM 7-hydroxycoumarinyl 6-heptenoate, pH 7.5; read-out: Coumarin IC50
T1 sequence (P47712 1-749): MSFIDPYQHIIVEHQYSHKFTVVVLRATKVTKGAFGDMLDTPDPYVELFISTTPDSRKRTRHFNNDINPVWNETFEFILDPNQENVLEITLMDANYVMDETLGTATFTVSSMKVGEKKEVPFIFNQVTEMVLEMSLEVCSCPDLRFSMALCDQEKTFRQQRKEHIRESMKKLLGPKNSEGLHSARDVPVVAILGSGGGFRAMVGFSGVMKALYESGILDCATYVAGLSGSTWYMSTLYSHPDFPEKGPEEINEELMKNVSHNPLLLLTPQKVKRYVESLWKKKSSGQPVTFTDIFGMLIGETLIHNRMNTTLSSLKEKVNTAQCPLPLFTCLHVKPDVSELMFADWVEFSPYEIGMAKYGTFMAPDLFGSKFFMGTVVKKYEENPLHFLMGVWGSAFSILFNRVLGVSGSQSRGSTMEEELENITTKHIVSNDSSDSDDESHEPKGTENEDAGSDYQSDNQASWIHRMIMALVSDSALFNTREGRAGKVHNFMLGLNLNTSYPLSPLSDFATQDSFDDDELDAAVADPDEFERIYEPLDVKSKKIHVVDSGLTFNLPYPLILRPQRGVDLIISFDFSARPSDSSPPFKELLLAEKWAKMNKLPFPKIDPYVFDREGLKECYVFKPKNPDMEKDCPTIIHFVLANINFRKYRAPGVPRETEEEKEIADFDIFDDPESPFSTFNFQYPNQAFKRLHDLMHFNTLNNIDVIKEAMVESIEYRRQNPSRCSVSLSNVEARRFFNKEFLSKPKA

B6 mice = assay: Experimental autoimmune encephalomyelitis (EAE), animal model of multiple sclerosis; format: in vivo; settings: orally, 100 mg/kg, twice/day
Method: Six groups of B6 mice were immunized with MOG/CFA and injected with pertussis toxin to induce experimental autoimmune encephalomyelitis (EAE), an animal model of Multiple sclerosis. […] Another three groups of mice were treated with vehicle, Compound A or Compound B starting on the day of EAE onset (day 15) (orally, 100 mg/kg, twice/day). […] The results are shown in FIG. 1, wherein mean clinical score is a mean of clinical evaluation of each animal for that particular day. Animals are scored as follows: • 0 no clinical signs of EAE (no paralysis) • 1—paralysis of tail • 2—paralysis of tail and partial hind leg paralysis • 3—paralysis of tail And complete hind leg paralysis • 4—paralysis of tail, complete hind leg paralysis and a partial front leg paralysis • 5—moribund animal (all four limbs paralyzed, lack of responsiveness, these mice were immediately euthanized).

IC50 (cPLA2) [nM] | SMILES | other results
320 | O=C(O)c1ccc(OCCc2c(CCNS(=O)(=O)Cc3ccc(Cl)c(Cl)c3)n(C(c3ccccc3)c3ccccc3)c3ccc(Cl)cc23)cc1F [Example 296, 4-{2-[1-benzhydryl-5-chloro-2-(2-{[(3,4-dichlorobenzyl)sulfonyl]amino}ethyl)-1H-indol-3-yl]ethoxy}-2-fluorobenzoic acid] | melting point: 117 to 119 °C
300 | O=C(O)c1ccc(OCCc2c(CCNS(=O)(=O)Cc3ccccc3Cl)n(C(c3ccccc3)c3ccccc3)c3ccc(Cl)cc23)cc1F [Example 297, 4-{2-[1-benzhydryl-5-chloro-2-(2-{[(2-chlorobenzyl)sulfonyl]amino}ethyl)-1H-indol-3-yl]ethoxy}-2-fluorobenzoic acid] | melting point: 132 to 135 °C
 | O=C(O)c1ccc(OCCc2c(CCNS(=O)(=O)Cc3ccc(Cl)c(Cl)c3)n(C(c3ccccc3)c3ccccc3)c3ccc(Cl)cc23)cc1 [Example 10, 4-{2-[1-Benzhydryl-5-chloro-2-(2-{[(3,4-dichlorobenzyl)sulfonyl]amino}-ethyl)-1H-indol-3-yl]ethoxy}benzoic acid] | EAE clinical score: prevention of EAE (B6 mice; from the day of immunization): prevent EAE; EAE clinical score: clinical severity of EAE (B6 mice; starting on the day of EAE onset (day 15)): reduce clinical severity of EAE
190 | CC(C)(Cc1ccc(S(=O)(=O)CCc2c(CCNS(=O)(=O)Cc3ccc(Cl)c(Cl)c3)n(C(c3ccccc3)c3ccccc3)c3ccc(Cl)cc23)cc1)C(=O)O [Example 298, 3-[4-({2-[1-benzhydryl-5-chloro-2-(2{[(3,4-dichlorobenzyl)sulfonyl]amino}ethyl)-1H-indol-3-yl]ethyl}sulfonyl)phenyl]-2,2-dimethylpropanoic acid] | melting point: 207 to 208 °C
950 | O=C(O)c1ccc(OCCc2c(CCNS(=O)(=O)c3cc(F)c(Cl)cc3F)n(C(c3ccccc3)c3ccccc3)c3ccc(Cl)cc23)cc1 [Example 170, 4-{2-[1-benzhydryl-5-chloro-2-(2-{[(4-chloro-2,5-difluorophenyl)sulfonyl]amino}ethyl)-1H-indol-3-yl]ethoxy}benzoic acid] | 
1200 | COC[C@@H]1CCCN1CCS(=O)(=O)NCCc1c(CCOc2ccc(C(=O)O)cc2)c2cc(Cl)ccc2n1C(c1ccccc1)c1ccccc1 [Example 248, 4-[2-(1-benzhydryl-5-chloro-2-{2-[({2-[(2S)-2-(methoxymethyl)pyrrolidin-1-yl]ethyl}sulfonyl)amino]ethyl}-1H-indol-3-yl)ethoxy]benzoic acid] | 
670 | CCC1CCCCN1CCS(=O)(=O)NCCc1c(CCOc2ccc(C(=O)O)cc2)c2cc(Cl)ccc2n1C(c1ccccc1)c1ccccc1 (centres unmarked) [Example 249, 4-(2-{1-benzhydryl-5-chloro-2-[2-({[2-(2-ethylpiperidin-1-yl)ethyl]sulfonyl}amino)ethyl]-1H-indol-3-yl}ethoxy)benzoic acid] | 
400 | O=C(O)c1ccc(CCCc2c(CCNS(=O)(=O)c3ccccc3[N+](=O)[O-])n(C(c3ccccc3)c3ccccc3)c3ccc(Cl)cc23)cc1 [Example 264, 4-{3-[1-benzhydryl-5-chloro-2-(2-{[(2-nitrophenyl)sulfonyl]amino}ethyl)-1H-indol-3-yl]propyl}benzoic acid] | 
500 | O=C(O)c1ccc(OCCc2c(CCNS(=O)(=O)CSc3ccc(F)c(Cl)c3)n(C(c3ccccc3)c3ccccc3)c3ccc(Cl)cc23)cc1 [Example 221, 4-[2-(1-benzhydryl-5-chloro-2-{2-[({[(3-chloro-4-fluorophenyl)thio]methyl}sulfonyl)amino]ethyl}-1H-indol-3-yl)ethoxy]benzoic acid] | 
160 | Cc1cc(C)c(S(=O)(=O)NCCc2c(CCOc3ccc(C(=O)O)cc3)c3cc(Cl)ccc3n2C(c2ccccc2)c2ccccc2)c(C)c1 [Example 266, 4-[2-(1-benzhydryl-5-chloro-2-{2-[(mesitylsulfonyl)amino]ethyl}-1H-indol-3-yl)ethoxy]benzoic acid] | 
730 | CC(C)C1CCCN1CCS(=O)(=O)NCCc1c(CCOc2ccc(C(=O)O)cc2)c2cc(Cl)ccc2n1C(c1ccccc1)c1ccccc1 (centres unmarked) [Example 252, 4-(2-{1-benzhydryl-5-chloro-2-[2-({[2-(2-isopropylpyrrolidin-1-yl)ethyl]sulfonyl}amino)ethyl]-1H-indol-3-yl}ethoxy)benzoic acid] | 
230 | O=C(O)c1ccc(CCCc2c(CCNS(=O)(=O)c3ccsc3)n(C(c3ccccc3)c3ccccc3)c3ccc(Cl)cc23)cc1 [Example 180, 4-[3-(1-benzhydryl-5-chloro-2-{2-[(thien-3-ylsulfonyl)amino]ethyl}-1H-indol-3-yl)propyl]benzoic acid] | 
230 | COc1ccccc1S(=O)(=O)NCCc1c(CCCc2ccc(C(=O)O)cc2)c2cc(Cl)ccc2n1C(c1ccccc1)c1ccccc1 [Example 234, 4-{3-[1-Benzhydryl-5-chloro-2-(2-{[(2-methoxyphenyl)sulfonyl]amino}ethyl)-1H-indol-3-yl]propyl}benzoic acid] | 
200 | O=C(O)c1ccc(OCCc2c(CCNS(=O)(=O)c3ccccc3-c3ccccc3)n(C(c3ccccc3)c3ccccc3)c3ccc(Cl)cc23)cc1 [Example 164, 4-[2-(1-benzhydryl-2-{2-[(1,1′-biphenyl-2-ylsulfonyl)amino]ethyl}-5-chloro-1H-indol-3-yl)ethoxy]benzoic acid] | 
1500 | O=C(O)c1ccc(OCCc2c(CCNS(=O)(=O)CCN3CCC(O)CC3)n(C(c3ccccc3)c3ccccc3)c3ccc(Cl)cc23)cc1 [Example 123, 4-[2-(1-Benzhydryl-5-chloro-2-{2-[2-(4-hydroxy-piperidin-1-yl)-ethanesulfonylamino]-ethyl}-1H-indol-3-yl)-ethoxy]-benzoic acid] | 
320 | O=C(O)c1ccc(CCCc2c(CCNS(=O)(=O)c3ccc(Cl)cc3Cl)n(C(c3ccccc3)c3ccccc3)c3ccc(Cl)cc23)cc1 [Example 152, 4-{3-[1-benzhydryl-5-chloro-2-(2-{[(2,4-dichlorophenyl)sulfonyl]-amino}ethyl)-1H-indol-3-yl]propyl}benzoic acid] | 
320 | Cc1c(Cl)cc(F)cc1S(=O)(=O)NCCc1c(CCCc2ccc(C(=O)O)cc2)c2cc(Cl)ccc2n1C(c1ccccc1)c1ccccc1 [Example 263, 4-{3-[1-benzhydryl-5-chloro-2-(2-{[(3-chloro-5-fluoro-2-methylphenyl)sulfonyl]amino}ethyl)-1H-indol-3-yl]propyl}benzoic acid] | 
< 3700 | O=S(=O)(Cc1ccc(Cl)c(Cl)c1)NCCc1c(CCOc2ccc(-c3nn[nH]n3)cc2)c2cc(Cl)ccc2n1C(c1ccccc1)c1ccccc1 [Example 192, N-[2-(1-benzhydryl-5-chloro-3-{2-[4-(2H-tetraazol-5-yl)phenoxy]ethyl}-1H-indol-2-yl)ethyl]-1-(3,4-dichlorophenyl)methanesulfonamide] | 
400 | O=C(O)c1ccc(OCCc2c(CCNS(=O)(=O)CSc3ccc(Cl)c(Cl)c3)n(C(c3ccccc3)c3ccccc3)c3ccc(Cl)cc23)cc1 [Example 220, 4-[2-(1-benzhydryl-5-chloro-2-{2-[({[(3,4-dichlorophenyl)thio]methyl}sulfonyl)amino]ethyl}-1H-indol-3-yl)ethoxy]benzoic acid] | 
350 | O=C(O)c1ccc(OCCc2c(CCNS(=O)(=O)c3ccccc3OCc3ccccc3)n(C(c3ccccc3)c3ccccc3)c3ccc(Cl)cc23)cc1 [Example 184, 4-(2-{1-Benzhydryl-2-[2-(2-benzyloxy-benzenesulfonylamino)-ethyl]-5-chloro-1H-indol-3-yl}-ethoxy)benzoic acid] | 
160 | O=C(O)c1ccc(CCCc2c(CCNS(=O)(=O)c3c(Cl)cccc3Cl)n(C(c3ccccc3)c3ccccc3)c3ccc(Cl)cc23)cc1 [Example 153, 4-{3-[1-benzhydryl-5-chloro-2-(2-{[(2,6-dichlorophenyl)sulfonyl]amino}ethyl)-1H-indol-3-yl]propyl}benzoic acid] | 

SMILES | IC50 (cPLA2) [nM] | other results
O=C(O)c1ccc(CCCc2c(CCNS(=O)(=O)Cc3ccc(Cl)cc3)n(C(c3ccccc3)c3ccccc3)c3ccc(Cl)cc23)cc1 [Example 60, 4-{3-[1-benzhydryl-5-chloro-2-(2-{[(4-chlorobenzyl)sulfonyl]amino}ethyl)-1H-indol-3-yl]propyl}benzoic acid] | 150 | 
